Source: ChEMBL document CHEMBL1201862, “PubChem BioAssay data set” (2004)
Activity calls are given as the source filed them.

Columns and labels:
Caspase-6 = molecular target: T1, Caspase-6 (Homo sapiens, UniProt P55212); assay: inhibition of CASP6 peptide cleavage – biochemical, VEID-R110 fluorescence, cherry-pick, dose response (AID 720632)
T1 sequence (P55212 whole entry): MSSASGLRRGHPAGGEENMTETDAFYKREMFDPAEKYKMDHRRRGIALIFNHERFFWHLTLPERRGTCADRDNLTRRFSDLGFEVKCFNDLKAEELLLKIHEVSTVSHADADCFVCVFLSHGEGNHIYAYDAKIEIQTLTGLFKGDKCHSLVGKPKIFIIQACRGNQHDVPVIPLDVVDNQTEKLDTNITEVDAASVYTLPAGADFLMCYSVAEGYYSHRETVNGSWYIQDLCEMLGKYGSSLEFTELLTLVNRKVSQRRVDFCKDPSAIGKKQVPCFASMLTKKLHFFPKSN

Vero [1] = assay: cells; format: functional, cell-based; conditions: Chlorocebus sabaeus
Vero [2] = assay: cells; format: functional; conditions: Chlorocebus sabaeus
[3] = molecular target: T2, Corticotropin-releasing factor receptor 2/Corticotropin-releasing factor-binding protein (Homo sapiens, UniProt P24387+Q13324); assay: Dose Response confirmation of uHTS hits for small molecule antagonists of the CRF-binding protein and CRF-R2 receptor complex.; format: functional; conditions: read-out: IC50_Mean
T2 sequence (Q13324 whole entry): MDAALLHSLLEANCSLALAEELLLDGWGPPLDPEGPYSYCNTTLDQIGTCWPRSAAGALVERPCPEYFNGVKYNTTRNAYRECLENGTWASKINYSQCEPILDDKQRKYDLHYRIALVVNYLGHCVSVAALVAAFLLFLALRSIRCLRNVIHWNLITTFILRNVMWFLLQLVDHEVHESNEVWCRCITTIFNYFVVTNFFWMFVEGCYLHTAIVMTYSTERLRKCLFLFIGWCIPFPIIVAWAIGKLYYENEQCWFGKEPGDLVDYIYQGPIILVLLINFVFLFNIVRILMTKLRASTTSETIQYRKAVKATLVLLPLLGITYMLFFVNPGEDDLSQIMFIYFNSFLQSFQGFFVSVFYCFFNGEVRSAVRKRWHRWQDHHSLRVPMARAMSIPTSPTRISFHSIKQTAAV
T2 sequence (P24387 whole entry): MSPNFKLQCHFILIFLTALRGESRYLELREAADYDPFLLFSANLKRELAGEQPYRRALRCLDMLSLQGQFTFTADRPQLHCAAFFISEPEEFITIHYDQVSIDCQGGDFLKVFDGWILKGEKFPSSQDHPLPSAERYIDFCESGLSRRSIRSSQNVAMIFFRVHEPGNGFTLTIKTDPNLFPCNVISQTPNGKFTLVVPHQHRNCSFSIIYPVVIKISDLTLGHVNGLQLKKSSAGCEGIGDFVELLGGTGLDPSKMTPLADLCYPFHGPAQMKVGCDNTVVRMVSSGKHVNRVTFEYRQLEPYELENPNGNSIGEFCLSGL

[4] = molecular target: T2, Corticotropin-releasing factor receptor 2/Corticotropin-releasing factor-binding protein; assay: activators of CRF receptor 2 with binding protein – uHTS hits, confirmation (AID 602473); format: functional; conditions: read-out: EC50_Mean
[5] = blockers of CRF-binding protein–CRF-R2 complex – cell-based, uHTS hits, 384-well, dose response (AID 651639); format: functional, Homo sapiens; conditions: read-out: IC50_Mean
BJ [6] = assay: BJ-TERT fibroblast viability loss – cell-based, RAS-independent, luminescence, dose response (AID 1933); format: functional; conditions: Homo sapiens
BJ [7] = assay: cells; format: functional, cell-based; conditions: Homo sapiens
BJ [8] = assay: BJ-TERT-LT-ST fibroblast viability loss – cell-based, RAS-independent, luminescence, dose response (AID 1935); format: functional; conditions: Homo sapiens;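 note: BJ fibroblasts immortalized with TERT plus LT and ST oncogenes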
[9] = DRD fibroblast viability loss – cell-based, non-viral oncogenic, luminescence, dose response (AID 1934); format: functional; conditions: Homo sapiens
[10] = molecular target: Nuclear receptor subfamily 5 group A member 2 (Homo sapiens, UniProt O00482); format: functional, cell-based;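 note: HEK293T cells transfected with LRH-1 and a StAR promoter luciferase reporter; potency for inhibitors that lower LRH-1 driven reporter light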
Sequence of Nuclear receptor subfamily 5 group A member 2 (O00482 whole entry): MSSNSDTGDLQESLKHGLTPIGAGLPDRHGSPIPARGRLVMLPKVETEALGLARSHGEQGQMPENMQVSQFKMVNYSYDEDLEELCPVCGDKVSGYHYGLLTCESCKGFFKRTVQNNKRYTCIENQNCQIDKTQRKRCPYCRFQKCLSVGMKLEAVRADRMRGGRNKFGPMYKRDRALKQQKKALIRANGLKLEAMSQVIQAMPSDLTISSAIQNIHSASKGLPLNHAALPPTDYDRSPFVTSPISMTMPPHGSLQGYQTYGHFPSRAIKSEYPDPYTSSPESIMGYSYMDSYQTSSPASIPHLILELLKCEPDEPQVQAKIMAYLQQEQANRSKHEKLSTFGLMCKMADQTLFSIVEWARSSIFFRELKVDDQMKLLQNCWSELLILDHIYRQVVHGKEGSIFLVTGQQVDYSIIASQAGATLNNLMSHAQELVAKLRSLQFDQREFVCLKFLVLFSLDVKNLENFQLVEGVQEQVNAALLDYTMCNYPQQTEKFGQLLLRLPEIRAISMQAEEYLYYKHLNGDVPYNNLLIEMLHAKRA

Steroidogenic factor 1 = Steroidogenic factor 1 (Homo sapiens, UniProt Q13285); assay: Counterscreen for inverse agonists of the liver receptor homolog-1 (LRH-1; NR5A2): Luminescence-based cell-based high throughput dose response assay to identify inverse agonists of the Steroidogenic Factor 1 Nuclear Receptor (SF1; NR5A1).; format: functional
Sequence of Steroidogenic factor 1 (Q13285 whole entry): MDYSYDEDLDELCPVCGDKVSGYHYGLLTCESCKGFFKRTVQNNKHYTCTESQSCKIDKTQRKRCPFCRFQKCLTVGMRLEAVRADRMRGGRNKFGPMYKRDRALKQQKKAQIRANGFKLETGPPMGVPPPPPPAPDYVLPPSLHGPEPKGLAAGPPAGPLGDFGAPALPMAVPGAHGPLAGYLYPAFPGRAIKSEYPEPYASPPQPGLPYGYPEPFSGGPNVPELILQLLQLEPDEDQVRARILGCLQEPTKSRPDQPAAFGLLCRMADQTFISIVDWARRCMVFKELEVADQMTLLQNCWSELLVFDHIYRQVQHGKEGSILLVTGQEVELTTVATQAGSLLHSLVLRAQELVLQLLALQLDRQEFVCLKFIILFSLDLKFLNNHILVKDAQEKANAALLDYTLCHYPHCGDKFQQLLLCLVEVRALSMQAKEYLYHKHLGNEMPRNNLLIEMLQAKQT

[11] = nonselective StAR promoter luciferase inhibitors – cell-based, luminescence, luciferase reporter, counter-screen for LRH-1 inverse agonist project, dose response (AID 651969); format: functional
Interleukin-8 = molecular target: T3, Interleukin-8 (Homo sapiens, UniProt P10145); assay: Dose Response confirmation of uHTS small molecule hits for cystic fibrosis induced NFkb Inhibitors in a PAF-induced IL8 counterscreen.; format: functional; conditions: read-out: IC50_Mean
T3 sequence (P10145 whole entry): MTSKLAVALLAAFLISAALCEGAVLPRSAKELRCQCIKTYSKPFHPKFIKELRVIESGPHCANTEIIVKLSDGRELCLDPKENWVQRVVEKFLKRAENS

[12] = luciferase reporter signal suppression in cells – H4 neuroglioma cells, luminescence, dose response (AID 1990); format: functional, cell-based
[13] = Luminescence Cell-Based Dose Response HTS to Identify Inhibitors of 5'UTR Stem-Loop Driven Prion Protein mRNA Translation in H4 Neuroglioblastoma Cells. [Related pubchem assays: 1827 (Project Summary), 1813 (Primary HTS)]; format: functional
[14] = alpha-synuclein stem-loop luciferase translation blockers – H4 neuroglioma cells, luminescence, confirmation (AID 1988); format: functional, cell-based
[15] = molecular target: T4, Microphthalmia-associated transcription factor (Homo sapiens, UniProt O75030); assay: reducers of TRPM1 reporter luminescence, concentration series – cell-based, SK-MEL-5, cherry-picked, set 3, MITF inhibitor project, dose response (AID 493073); format: functional;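 note: SK-MEL-5 melanoma cells with luciferase driven by the MITF target TRPM1 promoter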
T4 sequence (O75030 whole entry): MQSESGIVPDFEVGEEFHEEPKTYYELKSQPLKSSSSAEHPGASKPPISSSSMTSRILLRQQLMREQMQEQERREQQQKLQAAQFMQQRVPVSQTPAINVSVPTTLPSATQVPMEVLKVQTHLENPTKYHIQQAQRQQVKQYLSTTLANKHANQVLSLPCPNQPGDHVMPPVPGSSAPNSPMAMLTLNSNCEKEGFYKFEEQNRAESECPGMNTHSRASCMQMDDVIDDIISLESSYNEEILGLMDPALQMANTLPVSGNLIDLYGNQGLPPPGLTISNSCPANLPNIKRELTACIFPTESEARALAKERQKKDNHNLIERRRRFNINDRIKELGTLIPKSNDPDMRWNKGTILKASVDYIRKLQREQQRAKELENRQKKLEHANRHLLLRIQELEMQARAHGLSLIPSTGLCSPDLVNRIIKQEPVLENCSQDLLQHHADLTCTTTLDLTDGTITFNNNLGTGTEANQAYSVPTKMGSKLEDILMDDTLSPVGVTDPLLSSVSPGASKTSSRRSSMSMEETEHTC

[16] = molecular target: Glyceraldehyde-3-phosphate dehydrogenase (Homo sapiens, UniProt P04406)
Sequence of Glyceraldehyde-3-phosphate dehydrogenase (P04406 whole entry): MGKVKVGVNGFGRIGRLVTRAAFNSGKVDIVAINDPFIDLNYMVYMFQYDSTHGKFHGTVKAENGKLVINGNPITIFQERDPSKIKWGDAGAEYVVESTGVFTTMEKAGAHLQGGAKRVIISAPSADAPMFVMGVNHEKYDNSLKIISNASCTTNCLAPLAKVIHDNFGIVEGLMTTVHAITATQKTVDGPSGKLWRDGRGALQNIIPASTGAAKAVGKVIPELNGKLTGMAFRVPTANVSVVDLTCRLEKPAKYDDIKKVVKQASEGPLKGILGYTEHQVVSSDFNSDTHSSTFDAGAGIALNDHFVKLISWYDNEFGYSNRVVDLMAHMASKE

O=[N+]([O-])c1ccc(F)c2c(O)[nH]nc12
AC50 (Caspase-6): 6.73 µM (active)

Cn1cc([N+](=O)[O-])c(C(=O)Nc2ccn(C34CC5CC(CC(C5)C3)C4)n2)n1
IC50 (Vero [1]): 24.3 µM (active)
CC50 (Vero [2]): > 25 µM (active)

Cc1[nH]c2nc(SCC(=O)c3cccc([N+](=O)[O-])c3)nc-2cc1Br
IC50 [3]: < 0.368 µM (active)
EC50 [4]: > 53 µM (inactive)
IC50 [5]: 6.28 µM (active)

COc1ccc2c(-c3cc4ccc(OCc5ccc(F)cc5)cc4oc3=O)cc(=O)oc2c1
EC50 (BJ [6]): 3.13 µM (active)
EC50 (BJ [7]): > 150 µM (not active)
EC50 (BJ [8]): 7.45 µM (inconclusive)
EC50 [9]: 8.57 µM (active)

O=C(NC1CCCCC1)c1ccc([N+](=O)[O-])o1
IC50 (Vero [1]): > 25 µM (active)
CC50 (Vero [2]): 18.4 µM (active)

CCOc1ccc(NC(=O)CSc2nncc(O)n2)cc1
IC50 [10]: 0.594 µM (active)
IC50 (Steroidogenic factor 1): 0.178 µM (active)
IC50 [11]: 35.9 µM (inactive)

CCN(CC)C(=O)[C@H]1C[C@H](CC(=O)NC/C=C(\C)CCC=C(C)C)C(=O)N2CCc3c([nH]c4ccc(Cl)cc34)[C@]12C
IC50 [3]: < 0.368 µM (active)
EC50 [4]: > 53 µM (inactive)
IC50 [5]: 1.72 µM (active)

CCc1cc(-c2n[nH]cc2-c2ccc(OC)cc2)c(O)cc1O
IC50 (Interleukin-8): 6.31 µM (active)

COc1ccc(C(=O)Nc2ccc(C)cn2)c(OC)c1
EC50 [12]: 1.15 µM (active)
EC50 [13]: 28.2 µM (active)
EC50 [14]: 0.307 µM (active)
AC50 [15]: 3.7 µM (active)

CC1(C)CCSC(/C=C/c2ccccc2)=N1
EC50 (BJ [6]): 7.83 µM (active)
EC50 (BJ [7]): 143 µM (active)
EC50 (BJ [8]): 12.4 µM (active)
EC50 [9]: 8.6 µM (active)
IC50 (Vero [1]): 19.2 µM (active)
CC50 (Vero [2]): 18.5 µM (active)

COc1cc(S(=O)(=O)Nc2cccnc2)c(OC)cc1Br
IC50 [16]: > 100 µM (not active)
